Measured values reported in ChEMBL document CHEMBL1240371, “Randomized, double-blind study of the safety, tolerability, and efficacy of tafenoquine versus mefloquine for malaria prophylaxis in nonimmune subjects” (Antimicrob Agents Chemother, 2010).

How the values were obtained:
Settings in all cases: in vivo, po
Homo sapiens [1] = species on record: Homo sapiens; test: Toxicity in […] assessed as incidence of diarrhea at 200 mg, perorally for 3 days and weekly 200 mg, perorally maintenance dose for 26 +/- 4 weeks; assay type: organism-based
Homo sapiens [2] = species on record: Homo sapiens; test: Toxicity in […] assessed as incidence of increase in serum creatinine at 200 mg, perorally for 3 days and weekly 200 mg, perorally maintenance dose for 26 +/- 4 weeks; assay type: organism-based
Homo sapiens [3] = species on record: Homo sapiens; test: Toxicity in […] assessed as incidence of agitation at 200 mg, perorally for 3 days and weekly 200 mg, perorally maintenance dose for 26 +/- 4 weeks; assay type: organism-based
Homo sapiens [4] = species on record: Homo sapiens; test: Toxicity in […] assessed as incidence of vertigo at 200 mg, perorally for 3 days and weekly 200 mg, perorally maintenance dose for 26 +/- 4 weeks; assay type: organism-based
Homo sapiens [5] = species on record: Homo sapiens; test: Toxicity in […] assessed as incidence of abnormal coordination at 200 mg, perorally for 3 days and weekly 200 mg, perorally maintenance dose for 26 +/- 4 weeks; assay type: organism-based
Homo sapiens [6] = species on record: Homo sapiens; test: Toxicity in […] assessed as incidence of abdominal pain at 200 mg, perorally for 3 days and weekly 200 mg, perorally maintenance dose for 26 +/- 4 weeks; assay type: organism-based, Abdomen
Homo sapiens [7] = species on record: Homo sapiens; test: Toxicity in […] assessed as incidence of decrease in hematocrit at 200 mg, perorally for 3 days and weekly 200 mg, perorally maintenance dose for 26 +/- 4 weeks; assay type: organism-based; set-up: scale not given: the % may be the effect or the level left
Homo sapiens [8] = species on record: Homo sapiens; test: Toxicity in […] assessed as incidence of pigmentation of retinal epithelium at 200 mg, perorally for 3 days and weekly 200 mg, perorally maintenance dose for 26 +/- 4 weeks; assay type: organism-based
Homo sapiens [9] = species on record: Homo sapiens; test: Toxicity in […] assessed as incidence of vomiting at 200 mg, perorally for 3 days and weekly 200 mg, perorally maintenance dose for 26 +/- 4 weeks; assay type: organism-based
Homo sapiens [10] = species on record: Homo sapiens; test: Toxicity in […] assessed as incidence of phayngitis at 200 mg, perorally for 3 days and weekly 200 mg, perorally maintenance dose for 26 +/- 4 weeks; assay type: organism-based
Homo sapiens [11] = species on record: Homo sapiens; test: Toxicity in […] assessed as incidence of decrease in hematocrit at 250 mg, perorally for 3 days and weekly 250 mg, perorally maintenance dose for 26 +/- 4 weeks relative to baseline; assay type: organism-based; set-up: scale not given: the % may be the effect or the level left
Homo sapiens [12] = species on record: Homo sapiens; test: Toxicity in […] assessed as incidence of increase in bilirubin at 200 mg, perorally for 3 days and weekly 200 mg, perorally maintenance dose for 26 +/- 4 weeks; assay type: organism-based
Homo sapiens [13] = species on record: Homo sapiens; test: Toxicity in […] assessed as incidence of euphoria at 200 mg, perorally for 3 days and weekly 200 mg, perorally maintenance dose for 26 +/- 4 weeks; assay type: organism-based
Homo sapiens [14] = species on record: Homo sapiens; test: Toxicity in […] assessed as incidence of dizziness at 200 mg, perorally for 3 days and weekly 200 mg, perorally maintenance dose for 26 +/- 4 weeks; assay type: organism-based
Homo sapiens [15] = species on record: Homo sapiens; test: Toxicity in […] assessed as incidence of abnormal retinal fluorescein at 200 mg, perorally for 3 days and weekly 200 mg, perorally maintenance dose for 26 +/- 4 weeks; assay type: organism-based
Homo sapiens [16] = species on record: Homo sapiens; test: Toxicity in […] assessed as incidence of abnormal dreams at 200 mg, perorally for 3 days and weekly 200 mg, perorally maintenance dose for 26 +/- 4 weeks; assay type: organism-based
Homo sapiens [17] = species on record: Homo sapiens; test: Toxicity in […] assessed as incidence of paroniria at 200 mg, perorally for 3 days and weekly 200 mg, perorally maintenance dose for 26 +/- 4 weeks; assay type: organism-based
Homo sapiens [18] = species on record: Homo sapiens; test: Toxicity in […] assessed as incidence of depression at 200 mg, perorally for 3 days and weekly 200 mg, perorally maintenance dose for 26 +/- 4 weeks; assay type: organism-based
Homo sapiens [19] = species on record: Homo sapiens; test: Toxicity in […] assessed as incidence of nausea at 200 mg, perorally for 3 days and weekly 200 mg, perorally maintenance dose for 26 +/- 4 weeks; assay type: organism-based
Homo sapiens [20] = species on record: Homo sapiens; test: Toxicity in […] assessed as incidence of tremor at 200 mg, perorally for 3 days and weekly 200 mg, perorally maintenance dose for 26 +/- 4 weeks; assay type: organism-based
Homo sapiens [21] = species on record: Homo sapiens; test: Toxicity in […] assessed as incidence of arthralgia at 200 mg, perorally for 3 days and weekly 200 mg, perorally maintenance dose for 26 +/- 4 weeks; assay type: organism-based
Homo sapiens [22] = species on record: Homo sapiens; test: Toxicity in […] assessed as incidence of anxiety at 200 mg, perorally for 3 days and weekly 200 mg, perorally maintenance dose for 26 +/- 4 weeks; assay type: organism-based
Homo sapiens [23] = species on record: Homo sapiens; test: Toxicity in […] assessed as incidence of back pain at 200 mg, perorally for 3 days and weekly 200 mg, perorally maintenance dose for 26 +/- 4 weeks; assay type: organism-based
Homo sapiens [24] = species on record: Homo sapiens; test: Toxicity in […] assessed as incidence of somnolence at 200 mg, perorally for 3 days and weekly 200 mg, perorally maintenance dose for 26 +/- 4 weeks; assay type: organism-based
Homo sapiens [25] = species on record: Homo sapiens; test: Toxicity in […] assessed as incidence of rash at 200 mg, perorally for 3 days and weekly 200 mg, perorally maintenance dose for 26 +/- 4 weeks; assay type: organism-based
Homo sapiens [26] = species on record: Homo sapiens; test: Toxicity in […] assessed as incidence of fungal dermatitis at 200 mg, perorally for 3 days and weekly 200 mg, perorally maintenance dose for 26 +/- 4 weeks; assay type: organism-based
Homo sapiens [27] = species on record: Homo sapiens; test: Toxicity in […] assessed as incidence of amnesia at 200 mg, perorally for 3 days and weekly 200 mg, perorally maintenance dose for 26 +/- 4 weeks; assay type: organism-based
Homo sapiens [28] = species on record: Homo sapiens; test: Toxicity in […] assessed as incidence of headache at 200 mg, perorally for 3 days and weekly 200 mg, perorally maintenance dose for 26 +/- 4 weeks; assay type: organism-based
Homo sapiens [29] = species on record: Homo sapiens; test: Toxicity in […] assessed as incidence of insomnia at 200 mg, perorally for 3 days and weekly 200 mg, perorally maintenance dose for 26 +/- 4 weeks; assay type: organism-based
Homo sapiens [30] = species on record: Homo sapiens; test: Toxicity in […] assessed as incidence of viral infection at 200 mg, perorally for 3 days and weekly 200 mg, perorally maintenance dose for 26 +/- 4 weeks; assay type: organism-based
Homo sapiens [31] = species on record: Homo sapiens; test: Toxicity in […] assessed as incidence of vortex keratopathy at 200 mg, perorally for 3 days and weekly 200 mg, perorally maintenance dose for 26 +/- 4 weeks; assay type: organism-based

Compound COc1cc(C)c2c(Oc3cccc(C(F)(F)F)c3)c(OC)cc(NC(C)CCCN)c2n1 (stereo unspecified) [TAFENOQUINE] has an Activity (Homo sapiens [1]) of 77%, an Activity (Homo sapiens [2]) of 19% and an Activity (Homo sapiens [3]) of 2%. It also gave an Activity (Homo sapiens [4]) of 22%, an Activity (Homo sapiens [5]) of 2% and an Activity (Homo sapiens [6]) of 24%. The Activity (Homo sapiens [7]) was 20%, the Activity (Homo sapiens [8]) was 39.1% and the Activity (Homo sapiens [9]) was 21%. It also gave an Activity (Homo sapiens [10]) of 25%, an Activity (Homo sapiens [11]) of 15% and an Activity (Homo sapiens [12]) of 2.6%. The Activity (Homo sapiens [13]) was 2%, the Activity (Homo sapiens [14]) was 5% and the Activity (Homo sapiens [15]) was 28.6%. For the same compound, the Activity (Homo sapiens [16]) was 7%, the Activity (Homo sapiens [17]) was 1% and the Activity (Homo sapiens [18]) was 1%. The Activity (Homo sapiens [19]) was 28%, the Activity (Homo sapiens [20]) was 2% and the Activity (Homo sapiens [21]) was 55%. The Activity (Homo sapiens [22]) was 2%, the Activity (Homo sapiens [23]) was 74% and the Activity (Homo sapiens [24]) was 12%. For the same compound, the Activity (Homo sapiens [25]) was 70%, the Activity (Homo sapiens [26]) was 44% and the Activity (Homo sapiens [27]) was 1%. The Activity (Homo sapiens [28]) was 61%, the Activity (Homo sapiens [29]) was 5% and the Activity (Homo sapiens [30]) was 39%. The Activity (Homo sapiens [31]) was 93.2%.
